Experimental data: BindingDB's records for doi:10.1021/jm00072a005 (University of Paris, 1993)

Biological target: Cholecystokinin receptor type A (Rattus norvegicus) (UniProt P30551)
Assay: Tested for binding affinity towards cholecystokinin type A receptor in rat pancreas by displacement of [3H]pCCK-8 radioligand

Ki	Compound
3010 nM	CC(Cc1ccc2ccccc2c1)(NC(=O)OC1[C@H]2C[C@@H]3C[C@@H](C[C@H]1C3)C2)C(=O)N(CCc1ccccc1)CC(=O)O (stereo partly drawn) [{[2-(Adamantan-2-yloxycarbonylamino)-2-methyl-3-naphthalen-2-yl-propionyl]-phenethyl-amino}-acetic acid]

Biological target: Gastrin/cholecystokinin type B receptor (Cavia porcellus)
Assay: Tested for inhibition of [3H]pCCK-8 specific binding to cholecystokinin type B receptor in guinea pig brain cortex

Ki	Compound
89 nM	CC(Cc1c[nH]c2ccccc12)(NC(=O)OC1[C@H]2C[C@@H]3C[C@@H](C[C@H]1C3)C2)C(=O)NCCc1cccc2ccccc12 (stereo partly drawn) [[2-(1H-Indol-3-yl)-1-methyl-1-(2-naphthalen-1-yl-ethylcarbamoyl)-ethyl]-carbamic acid adamantan-2-yl ester]

Biological target: Gastrin/cholecystokinin type B receptor (Cavia porcellus)
Assay: as above
Remark: another data set of the same source

Compound	Ki
CC(Cc1c[nH]c2ccccc12)(NC(=O)OC1[C@H]2C[C@@H]3C[C@@H](C[C@H]1C3)C2)C(=O)Nc1ccc2ccccc2c1 (stereo partly drawn) [[2-(1H-Indol-3-yl)-1-methyl-1-(naphthalen-2-ylcarbamoyl)-ethyl]-carbamic acid adamantan-2-yl ester]	402 nM
CC(Cc1c[nH]c2ccccc12)(NC(=O)OC1[C@H]2C[C@@H]3C[C@@H](C[C@H]1C3)C2)C(=O)NCCc1ccc(Br)cc1 (stereo partly drawn) [[1-[2-(4-Bromo-phenyl)-ethylcarbamoyl]-2-(1H-indol-3-yl)-1-methyl-ethyl]-carbamic acid adamantan-2-yl ester]	51 nM
CC(Cc1c[nH]c2ccccc12)(NC(=O)OC1[C@H]2C[C@@H]3C[C@@H](C[C@H]1C3)C2)C(=O)NCCc1ccc([N+](=O)[O-])cc1 (stereo partly drawn) [{2-(1H-Indol-3-yl)-1-methyl-1-[2-(4-nitro-phenyl)-ethylcarbamoyl]-ethyl}-carbamic acid adamantan-2-yl ester]	79 nM
CCOC(=O)CN(CCc1ccccc1)C(=O)C(C)(Cc1c[nH]c2ccccc12)NC(=O)OC1[C@H]2C[C@@H]3C[C@@H](C[C@H]1C3)C2 (stereo partly drawn) [{[2-(Adamantan-2-yloxycarbonylamino)-3-(1H-indol-3-yl)-2-methyl-propionyl]-phenethyl-amino}-acetic acid ethyl ester]	543 nM
CC(Cc1c[nH]c2ccccc12)(NC(=O)OC1[C@H]2C[C@@H]3C[C@@H](C[C@H]1C3)C2)C(=O)NCC(=O)O (stereo partly drawn) [[2-(Adamantan-2-yloxycarbonylamino)-3-(1H-indol-3-yl)-2-methyl-propionylamino]-acetic acid]	986 nM
CC(Cc1c[nH]c2ccccc12)(NC(=O)OC1[C@H]2C[C@@H]3C[C@@H](C[C@H]1C3)C2)C(=O)N(CCc1ccc(Cl)cc1Cl)CC(=O)O (stereo partly drawn) [{[2-(Adamantan-2-yloxycarbonylamino)-3-(1H-indol-3-yl)-2-methyl-propionyl]-[2-(2,4-dichloro-phenyl)-ethyl]-amino}-acetic acid]	37 nM

The remaining lines, values ahead:

Ki	Compound
231 nM	CC(Cc1c[nH]c2ccccc12)(NC(=O)OC1[C@H]2C[C@@H]3C[C@@H](C[C@H]1C3)C2)C(=O)NCc1ccccc1 (stereo partly drawn) [[1-Benzylcarbamoyl-2-(1H-indol-3-yl)-1-methyl-ethyl]-carbamic acid adamantan-2-yl ester]
27 nM	CC(Cc1c[nH]c2ccccc12)(NC(=O)OC1[C@H]2C[C@@H]3C[C@@H](C[C@H]1C3)C2)C(=O)NCCc1ccc(Cl)cc1Cl (stereo partly drawn) [[1-[2-(2,4-Dichloro-phenyl)-ethylcarbamoyl]-2-(1H-indol-3-yl)-1-methyl-ethyl]-carbamic acid adamantan-2-yl ester]
115 nM	COc1ccc(CCNC(=O)C(C)(Cc2c[nH]c3ccccc23)NC(=O)OC2[C@H]3C[C@@H]4C[C@@H](C[C@H]2C4)C3)cc1 (stereo partly drawn) [{2-(1H-Indol-3-yl)-1-[2-(4-methoxy-phenyl)-ethylcarbamoyl]-1-methyl-ethyl}-carbamic acid adamantan-2-yl ester]
134 nM	CC(Cc1cccc2ccccc12)(NC(=O)OC1[C@H]2C[C@@H]3C[C@@H](C[C@H]1C3)C2)C(=O)N(CCc1ccccc1)CC(=O)O (stereo partly drawn) [{[2-(Adamantan-2-yloxycarbonylamino)-2-methyl-3-naphthalen-1-yl-propionyl]-phenethyl-amino}-acetic acid]
12 nM	CC(Cc1c[nH]c2ccccc12)(C(=O)OC1[C@H]2C[C@@H]3C[C@@H](C[C@H]1C3)C2)C(=O)N(CCc1ccc(Cl)cc1Cl)CC(=O)O (stereo partly drawn) [N-Carboxymethyl-N-[2-(2,4-dichloro-phenyl)-ethyl]-2-(1H-indol-3-ylmethyl)-2-methyl-malonamic acid adamantan-2-yl ester]
